# Results: article PMC11672551, “Cyclic Ruthenium-Peptide Prodrugs Penetrate the Blood–Brain Barrier and Attack Glioblastoma upon Light Activation in Orthotopic Zebrafish Tumor Models” (ACS Central Science, 2024)
# System: U87MG tumor cells in zebrafish hindbrain
# Assay: Tumor targeting in zebrafish embryos, colocalization of drug emission with GFP-U87MG cells in the hindbrain
# Type: in vivo
# Details: 2 pmol, line-scan profiles of high-resolution images (Figure S35)
# Description: In a second step, the targeting of GBM cells by Ru-p(HH) was tested by detecting the colocalization of the red-emissive drug (excitation: 488 nm; emission detector window: 630–774 nm) with GFP-U87MG cells (excitation: 488 nm; emission: 485–575 nm). To clearly see the distribution of the drug and of the cancer cells in zebrafish, we used Tg(kdrl:mTurquoise)^hu7185Tg embryos. In this transgenic fish line, the blood vessels of the embryos are labeled by the mTurquoise fluorescent protein, which can be excited at 405 nm and emits at 464–480 nm. As shown in Figure 5a and Figure S33a, when only tumor cells were injected into the hindbrain of the zebrafish embryo, GFP was the only signal detected. […] By calculating the distribution and intensity of Ru-p(HH) emission in the region of U87MG cells in the brain, the PCC and MOC values for the top-down view of the hindbrain were determined to be 0.49 and 0.79, respectively, while those in the side images were 0.77 and 0.66 (Figure 5b, Figure S33b).
# Figure 5 Targeting a U87MG brain tumor with Ru-p(HH)in vivo. […] The Z-axis is the cell fluorescence intensity (green) and the drug fluorescence intensity (purple). […] Both PCC and MOC are calculated and are shown in the graph. […]
substance,measurement,value
[Ru(Ph2phen)2(bpy)]Cl2,"MOC between prodrug and tumor, comparison with RGD-free control",0.35
same,"PCC between prodrug and tumor, comparison with RGD-free control",−0.2
